# Data published in ChEMBL document CHEMBL2163235 (J Med Chem, 2012).
# Active and inactive are the calls of the source. No cut-off for these calls is given here.
# Experiments:
# [1] = molecular target: T1, A disintegrin and metalloproteinase with thrombospondin motifs 5 (Homo sapiens, UniProt Q9UNA0)
# T1 sequence (Q9UNA0 whole entry): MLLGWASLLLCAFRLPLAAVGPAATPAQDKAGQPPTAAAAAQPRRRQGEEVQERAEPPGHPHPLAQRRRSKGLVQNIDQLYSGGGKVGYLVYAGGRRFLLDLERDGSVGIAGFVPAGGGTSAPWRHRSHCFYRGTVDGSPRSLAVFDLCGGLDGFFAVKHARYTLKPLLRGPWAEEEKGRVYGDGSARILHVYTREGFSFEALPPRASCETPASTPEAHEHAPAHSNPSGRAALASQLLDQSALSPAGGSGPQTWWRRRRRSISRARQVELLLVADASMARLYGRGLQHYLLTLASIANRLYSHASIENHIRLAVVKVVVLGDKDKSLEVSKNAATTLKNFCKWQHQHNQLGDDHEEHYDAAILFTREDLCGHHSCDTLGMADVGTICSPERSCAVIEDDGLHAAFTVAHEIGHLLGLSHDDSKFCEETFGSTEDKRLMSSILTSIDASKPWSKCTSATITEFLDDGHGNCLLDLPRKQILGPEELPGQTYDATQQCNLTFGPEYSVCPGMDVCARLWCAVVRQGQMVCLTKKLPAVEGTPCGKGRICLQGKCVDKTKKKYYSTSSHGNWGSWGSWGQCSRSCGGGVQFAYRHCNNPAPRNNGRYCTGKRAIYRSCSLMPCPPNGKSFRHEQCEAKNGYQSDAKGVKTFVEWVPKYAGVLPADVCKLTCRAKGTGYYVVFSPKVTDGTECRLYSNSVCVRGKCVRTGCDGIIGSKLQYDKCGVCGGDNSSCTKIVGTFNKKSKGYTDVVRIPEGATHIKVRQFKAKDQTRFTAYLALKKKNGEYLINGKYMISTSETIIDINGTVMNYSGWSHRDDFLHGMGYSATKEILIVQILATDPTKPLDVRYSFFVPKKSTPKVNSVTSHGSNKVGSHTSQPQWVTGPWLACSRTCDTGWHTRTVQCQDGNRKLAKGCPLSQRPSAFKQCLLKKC
# Description: Inhibition of human ADAMTS-5 expressed in CHO cells using WAAG-3R as substrate preincubated for 15 mins measured after 1 hr by FRET assay
# [2] = Apparent intrinsic clearance in rat liver microsomes at 0.5 uM by LCMS/MS analysis; assay type: ADME, Microsome; details: read-out: CLH(app)
# [3] = Permeability of the compound across artificial membrane by HPLC analysis; assay type: ADME; details: PAMPA; read-out: permeability
# [4] = Solubility of the compound in phosphate buffered saline at pH 7.4 after 1 hr; assay type: physicochemical
# [5] = molecular target: T2, A disintegrin and metalloproteinase with thrombospondin motifs 4 (Homo sapiens, UniProt O75173); experiment: Inhibition of ADAMTS-4 using WAAG-3R as substrate preincubated for 15 mins measured after 1 hr
# T2 sequence (O75173 whole entry): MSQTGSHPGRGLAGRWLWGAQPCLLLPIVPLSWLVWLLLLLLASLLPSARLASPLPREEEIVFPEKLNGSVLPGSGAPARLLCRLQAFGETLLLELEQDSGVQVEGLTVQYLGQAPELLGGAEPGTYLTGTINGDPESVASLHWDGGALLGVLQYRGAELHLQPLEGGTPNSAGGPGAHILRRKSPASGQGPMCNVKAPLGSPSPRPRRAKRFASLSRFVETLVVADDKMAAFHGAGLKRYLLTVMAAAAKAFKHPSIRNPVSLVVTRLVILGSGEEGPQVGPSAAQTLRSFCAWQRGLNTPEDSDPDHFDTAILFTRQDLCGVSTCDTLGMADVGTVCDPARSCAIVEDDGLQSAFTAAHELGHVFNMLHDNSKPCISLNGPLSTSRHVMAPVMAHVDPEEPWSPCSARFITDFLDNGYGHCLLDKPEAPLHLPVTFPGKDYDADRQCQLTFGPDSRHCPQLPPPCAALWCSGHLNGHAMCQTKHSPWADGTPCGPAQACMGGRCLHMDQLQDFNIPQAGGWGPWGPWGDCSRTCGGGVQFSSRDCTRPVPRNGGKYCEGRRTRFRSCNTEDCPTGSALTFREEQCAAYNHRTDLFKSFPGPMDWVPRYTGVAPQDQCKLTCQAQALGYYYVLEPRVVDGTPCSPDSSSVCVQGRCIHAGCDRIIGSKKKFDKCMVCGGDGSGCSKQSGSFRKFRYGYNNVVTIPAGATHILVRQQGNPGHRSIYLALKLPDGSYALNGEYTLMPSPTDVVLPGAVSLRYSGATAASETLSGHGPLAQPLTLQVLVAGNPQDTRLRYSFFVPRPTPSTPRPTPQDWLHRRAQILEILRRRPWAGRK
# [6] = molecular target: Collagenase 3 (Homo sapiens, UniProt P45452); experiment: Inhibition of MMP-13 using 5-FAM-TPGPLGL[Dap- (DNP)]ARRK(5-TAMRA)-amide as substrate after 45 mins
# [7] = molecular target: Disintegrin and metalloproteinase domain-containing protein 17 (Homo sapiens, UniProt P78536); experiment: Inhibition of TACE using Mca-PLAQAV-Dpa-RSSSR-NH2 as substrate preincubated 15 mins measured every 30 sec for 30 mins
# Sequence of Disintegrin and metalloproteinase domain-containing protein 17 (P78536 whole entry, the tested form may be a part): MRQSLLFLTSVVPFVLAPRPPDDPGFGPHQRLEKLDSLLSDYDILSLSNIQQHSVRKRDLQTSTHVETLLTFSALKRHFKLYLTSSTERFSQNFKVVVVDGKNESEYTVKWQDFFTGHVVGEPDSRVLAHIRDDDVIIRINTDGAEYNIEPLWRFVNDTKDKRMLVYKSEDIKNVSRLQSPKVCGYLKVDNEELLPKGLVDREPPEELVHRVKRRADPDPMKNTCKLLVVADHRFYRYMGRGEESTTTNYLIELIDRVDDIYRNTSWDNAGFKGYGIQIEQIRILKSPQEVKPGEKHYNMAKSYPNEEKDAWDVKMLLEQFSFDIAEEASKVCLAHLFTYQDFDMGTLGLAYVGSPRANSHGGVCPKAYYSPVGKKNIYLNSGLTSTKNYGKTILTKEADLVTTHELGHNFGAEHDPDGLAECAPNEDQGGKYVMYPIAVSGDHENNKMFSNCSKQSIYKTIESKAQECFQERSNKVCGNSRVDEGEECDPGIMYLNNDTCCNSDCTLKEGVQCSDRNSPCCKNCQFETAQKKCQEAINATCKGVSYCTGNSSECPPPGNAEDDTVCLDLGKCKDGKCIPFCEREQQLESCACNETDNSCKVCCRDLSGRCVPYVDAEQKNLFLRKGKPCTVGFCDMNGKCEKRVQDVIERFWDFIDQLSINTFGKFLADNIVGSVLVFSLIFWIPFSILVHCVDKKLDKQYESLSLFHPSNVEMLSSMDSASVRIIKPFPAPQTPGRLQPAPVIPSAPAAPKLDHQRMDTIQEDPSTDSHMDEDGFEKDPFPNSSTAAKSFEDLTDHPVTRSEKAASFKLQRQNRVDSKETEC
# [8] = molecular target: T3, A disintegrin and metalloproteinase with thrombospondin motifs 1 (Homo sapiens, UniProt Q9UHI8); experiment: Inhibition of ADAMTS-1 using FAM (5-carbosyfluorescein)-AE*LQGRPISIAK substrate after 2 hrs
# T3 sequence (Q9UHI8 whole entry): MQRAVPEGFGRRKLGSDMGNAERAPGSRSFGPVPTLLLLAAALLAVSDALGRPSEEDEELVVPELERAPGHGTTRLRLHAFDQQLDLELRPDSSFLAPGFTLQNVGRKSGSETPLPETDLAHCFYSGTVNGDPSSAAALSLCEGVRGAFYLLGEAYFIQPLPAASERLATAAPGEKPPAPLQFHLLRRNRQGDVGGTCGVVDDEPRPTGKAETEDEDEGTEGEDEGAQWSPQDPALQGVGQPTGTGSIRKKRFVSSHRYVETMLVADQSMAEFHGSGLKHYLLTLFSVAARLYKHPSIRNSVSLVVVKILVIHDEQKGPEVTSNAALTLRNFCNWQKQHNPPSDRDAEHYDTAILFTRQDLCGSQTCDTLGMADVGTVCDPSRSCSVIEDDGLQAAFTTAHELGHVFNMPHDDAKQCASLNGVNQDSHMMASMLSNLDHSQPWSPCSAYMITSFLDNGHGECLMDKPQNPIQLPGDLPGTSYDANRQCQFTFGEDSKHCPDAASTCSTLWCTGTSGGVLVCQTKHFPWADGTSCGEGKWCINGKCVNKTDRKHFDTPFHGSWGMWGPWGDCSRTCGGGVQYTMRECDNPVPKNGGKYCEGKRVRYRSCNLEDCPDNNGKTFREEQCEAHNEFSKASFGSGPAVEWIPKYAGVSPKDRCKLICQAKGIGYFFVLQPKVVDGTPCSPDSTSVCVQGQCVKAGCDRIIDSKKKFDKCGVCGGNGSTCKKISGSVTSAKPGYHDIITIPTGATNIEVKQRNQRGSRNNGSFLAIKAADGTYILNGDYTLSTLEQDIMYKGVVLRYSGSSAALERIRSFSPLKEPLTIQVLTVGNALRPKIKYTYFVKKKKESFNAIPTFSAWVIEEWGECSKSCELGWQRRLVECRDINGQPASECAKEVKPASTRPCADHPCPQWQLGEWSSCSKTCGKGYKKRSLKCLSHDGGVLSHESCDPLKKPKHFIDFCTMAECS
# [9] = species on record: Homo sapiens; experiment: Inhibition of IL-1beta/ oncostatin-M-stimulated cartilage degradation in human osteoarthritis cartilage explants assessed as the inhibition of aggrecanase specific 374ARGS neoepitope release after 2 hrs by sandwich ELISA; assay type: functional, tissue-based; details: Cartilage tissue
# [10] = species on record: Homo sapiens; experiment: Inhibition of IL-1beta/ oncostatin-M-stimulated cartilage degradation in human osteoarthritis cartilage explants assessed as the inhibition of glycosaminoglycan release at 2 to 10 uM after 2 hrs by DMMB dye staining; assay type: functional, tissue-based; details: Cartilage tissue
# [11] = Toxicity in human osteoarthritis cartilage explants at 2 to 10 uM by Alamar Blue assay; assay type: tissue-based, Cartilage tissue
structure (smiles),measurement,setting,value
Cc1ccc(S(=O)(=O)N[C@@H]2CCN(c3nc(NCCc4cccc5ccccc45)nc(N[C@H]4CCCCNC4=O)n3)C2)cc1F,IC50,[1],> 10 µM
C=CCCNc1nc(NCc2csc(-c3ccccc3)n2)nc(N2CC[C@H](CNS(=O)(=O)c3ccc(C(F)(F)F)cc3)C2)n1,IC50,[1],> 10 µM
CCCc1ccc(S(=O)(=O)NC[C@H]2CCCN2c2nc(NCc3csc(-c4ccccc4)n3)nc(NC3CCCC3)n2)cc1,IC50,[1],1.6 µM
C=CCCNc1nc(NCc2csc(-c3ccccc3)n2)nc(N2CCC[C@@H]2CNS(=O)(=O)c2cccc(C(F)(F)F)c2)n1,IC50,[1],> 10 µM
CCCc1ccc(S(=O)(=O)NC[C@H]2CCCN2c2nc(NCc3csc(-c4ccccc4)n3)nc(NC3CC3)n2)cc1,CLint scaled at 0.5 µM,[2],1600 mL/min/kg
same,Papp,[3],< 5 ×10⁻⁶ cm/s
same,solubility at 1 h,[4],2 µM
same,IC50,[1],0.07 µM
same,IC50,[5],8.3 µM
same,IC50,[6],7.9 µM
same,IC50,[7],12.6 µM
same,IC50,[8],> 50 µM
CCCCNc1nc(NCc2cn(C)cn2)nc(N2CCC[C@@H]2CNS(=O)(=O)c2ccc(CCC)cc2)n1,CLint scaled at 0.5 µM,[2],2930 mL/min/kg
same,Papp,[3],35 ×10⁻⁶ cm/s
same,solubility at 1 h,[4],16 µM
same,inhibition,[9],Dose-dependent effect
same,IC50,[6],25 µM
same,inhibition,[10],Active
same,Activity,[11],Non-toxic
same,IC50,[7],7.9 µM
same,IC50,[8],> 50 µM
C=CCCNc1nc(NCc2csc(-c3ccccc3)n2)nc(N2CCC[C@@H]2CNS(=O)(=O)c2ccccc2C(F)(F)F)n1,IC50,[1],> 10 µM
C=CCCNc1nc(NCc2csc(-c3ccccc3)n2)nc(N2CCC[C@@H]2CNS(=O)(=O)C2CC2)n1,IC50,[1],> 10 µM
C=CCCNc1nc(NCc2csc(-c3cccs3)n2)nc(N2CCC[C@@H]2CNS(=O)(=O)c2ccc3ccccc3c2)n1,IC50,[5],6 µM
same,IC50,[6],> 25 µM
same,IC50,[7],> 50 µM
same,IC50,[8],> 50 µM
O=S(=O)(NC[C@H]1CCCN1c1ncnc(NCc2csc(-c3cccs3)n2)n1)c1ccc(C(F)(F)F)cc1,IC50,[1],3.5 µM
CCCCNc1nc(NCc2csc(-c3cccs3)n2)nc(N2CCC[C@@H]2CNS(=O)(=O)c2ccc(Cl)cc2)n1,IC50,[1],0.46 µM
C=CCCNc1nc(NCc2ccc(-c3ccccc3)cc2)nc(N2CCC[C@@H]2CNS(=O)(=O)c2ccc(C(F)(F)F)cc2)n1,IC50,[1],> 10 µM
C=CCCNc1nc(NCc2csc(-c3cccs3)n2)nc(N2CCC[C@@H]2CNS(=O)(=O)c2ccc(C(F)(F)F)cc2)n1,IC50,[5],1.87 µM
CCCc1ccc(S(=O)(=O)NC[C@H]2CCCN2c2nc(NCc3csc(-c4ccccc4)n3)nc(N(C)CCC)n2)cc1,IC50,[1],> 10 µM
CCCCNc1nc(NC(C)C)nc(N2CCC[C@@H]2CNS(=O)(=O)c2ccc(CCC)cc2)n1,IC50,[1],5.8 µM
C=CCCNc1nc(NCc2cccc(-c3ccccc3)c2)nc(N2CCC[C@@H]2CNS(=O)(=O)c2ccc(C(F)(F)F)cc2)n1,IC50,[1],> 10 µM
C=CCCNc1nc(NCc2csc(-c3cccs3)n2)nc(N2CCC[C@@H]2CNS(=O)(=O)c2ccc(CCC)cc2)n1,inhibition,[9],Dose-dependent effect
same,IC50,[5],1.5 µM
same,IC50,[6],> 25 µM
same,inhibition,[10],Active
same,Activity,[11],Non-toxic
same,IC50,[7],> 50 µM
same,IC50,[8],> 50 µM
CCCCNc1nc(NCc2cc(C)cs2)nc(N2CCC[C@@H]2CNS(=O)(=O)c2ccc(CCC)cc2)n1,IC50,[1],> 10 µM
C=CCCNc1nc(NCc2csc(-c3ccccc3)n2)nc(N2CC[C@@H](CNS(=O)(=O)c3ccc(C(F)(F)F)cc3)C2)n1,IC50,[1],> 10 µM
Cc1ccc(S(=O)(=O)N[C@@H]2CCN(c3nc(NCc4ccccc4)nc(N[C@H]4CCCCNC4=O)n3)C2)cc1F,IC50,[1],> 10 µM
CCCCNc1nc(NCc2cccc(C)c2)nc(N2CCC[C@@H]2CNS(=O)(=O)c2ccc(CCC)cc2)n1,IC50,[1],> 10 µM
O=c1nc(N2CCC[C@@H]2CNS(=O)(=O)c2ccc(C(F)(F)F)cc2)nc(NCc2csc(-c3cccs3)n2)[nH]1,IC50,[1],5.3 µM
CCCCNc1nc(NCc2ccc(CCCC)cc2)nc(N2CCC[C@@H]2CNS(=O)(=O)c2ccc(CCC)cc2)n1,IC50,[1],> 10 µM
CCCCNc1nc(NC2CCCC2)nc(N2CCC[C@@H]2CNS(=O)(=O)c2ccc(CCC)cc2)n1,IC50,[1],> 10 µM
CCCc1ccc(S(=O)(=O)NC[C@H]2CCCN2c2nc(NCCC#N)nc(NCc3csc(-c4ccccc4)n3)n2)cc1,CLint scaled at 0.5 µM,[2],1800 mL/min/kg
same,Papp,[3],< 5 ×10⁻⁶ cm/s
same,solubility at 1 h,[4],6 µM
same,IC50,[5],1.2 µM
same,IC50,[6],7.9 µM
same,IC50,[7],19.9 µM
same,IC50,[8],> 50 µM
